Converted amounts (≈) assume the structure as drawn.
Assays:
Assay type in all cases: functional
[1] = system: Citrobacter freundii; assay: Antimicrobial activity against Citrobacter freundii at 10 to 60 ug/disk by disk diffusion method
[2] = system: Escherichia coli; assay: Antimicrobial activity against Escherichia coli at 10 to 60 ug/disk by disk diffusion method
[3] = system: Aspergillus niger; assay: Antimicrobial activity against Aspergillus niger at 10 to 60 ug/disk by disk diffusion method
[4] = system: Fusarium verticillioides; assay: Antimicrobial activity against Fusarium verticillioides at 10 to 60 ug/disk by disk diffusion method
[5] = system: Serratia marcescens; assay: Antimicrobial activity against Serratia marcescens at 10 to 60 ug/disk by disk diffusion method
[6] = system: Pseudomonas aeruginosa; assay: Antimicrobial activity against Pseudomonas aeruginosa at 10 to 60 ug/disk by disk diffusion method
[7] = system: Micrococcus luteus; assay: Antimicrobial activity against Micrococcus luteus at 10 to 60 ug/disc by disk diffusion method
[8] = system: Proteus vulgaris; assay: Antimicrobial activity against Proteus vulgaris at 10 to 60 ug/disk by disk diffusion method
[9] = system: Priestia megaterium; assay: Antimicrobial activity against Bacillus megaterium at 10 to 60 ug/disk by disk diffusion method
[10] = system: Aspergillus oryzae; assay: Antimicrobial activity against Aspergillus oryzae at 10 to 60 ug/disk by disk diffusion method
[11] = system: Candida albicans; assay: Antimicrobial activity against Candida albicans at 10 to 60 ug/disk by disk diffusion method
[12] = system: Salmonella typhi; assay: Antimicrobial activity against Salmonella enterica subsp. enterica serovar Typhi at 10 to 60 ug/disk by disk diffusion method
[13] = system: Klebsiella pneumoniae; assay: Antimicrobial activity against Klebsiella pneumoniae at 10 to 60 ug/disk by disk diffusion method
[14] = system: Priestia megaterium; assay: Antimicrobial activity against Bacillus megaterium at 10 ug/disk by disk diffusion method; conditions: read-out: DIZ
[15] = system: Salmonella typhi; assay: Antimicrobial activity against Salmonella enterica subsp. enterica serovar Typhi at 10 ug/disk by disk diffusion method; conditions: read-out: DIZ
[16] = system: Serratia marcescens; assay: Antimicrobial activity against Serratia marcescens by disk diffusion method
[17] = system: Pseudomonas aeruginosa; assay: Antimicrobial activity against Pseudomonas aeruginosa by disk diffusion method
[18] = system: Fusarium verticillioides; assay: Antimicrobial activity against Fusarium verticillioides at 10 ug/disk by disk diffusion method; conditions: read-out: DIZ
[19] = system: Proteus vulgaris; assay: Antimicrobial activity against Proteus vulgaris at 20 ug/disk by disk diffusion method; conditions: read-out: DIZ
[20] = system: Aspergillus niger; assay: Antimicrobial activity against Aspergillus niger at 20 ug/disk by disk diffusion method; conditions: read-out: DIZ
[21] = system: Escherichia coli; assay: Antimicrobial activity against Escherichia coli at 10 ug/disk by disk diffusion method; conditions: read-out: DIZ
[22] = system: Citrobacter freundii; assay: Antimicrobial activity against Citrobacter freundii at 20 ug/disk by disk diffusion method; conditions: read-out: DIZ
[23] = system: Micrococcus luteus; assay: Antimicrobial activity against Micrococcus luteus at 10 ug/disc by disk diffusion method; conditions: read-out: DIZ
[24] = system: Klebsiella pneumoniae; assay: Antimicrobial activity against Klebsiella pneumoniae by disk diffusion method
[25] = system: Candida albicans; assay: Antimicrobial activity against Candida albicans at 40 ug/disk by disk diffusion method; conditions: read-out: DIZ
[26] = system: Escherichia coli; assay: Antimicrobial activity against Escherichia coli by disk diffusion method
[27] = system: Proteus vulgaris; assay: Antimicrobial activity against Proteus vulgaris by disk diffusion method
[28] = system: Pseudomonas aeruginosa; assay: Antimicrobial activity against Pseudomonas aeruginosa at 10 ug/disk by disk diffusion method; conditions: read-out: DIZ
[29] = system: Citrobacter freundii; assay: Antimicrobial activity against Citrobacter freundii by disk diffusion method
[30] = system: Micrococcus luteus; assay: Antimicrobial activity against Micrococcus luteus by disk diffusion method
[31] = system: Aspergillus oryzae; assay: Antimicrobial activity against Aspergillus oryzae at 10 ug/disk by disk diffusion method; conditions: read-out: DIZ
[32] = system: Serratia marcescens; assay: Antimicrobial activity against Serratia marcescens at 20 ug/disk by disk diffusion method; conditions: read-out: DIZ
[33] = system: Salmonella typhi; assay: Antimicrobial activity against Salmonella enterica subsp. enterica serovar Typhi by disk diffusion method
[34] = system: Priestia megaterium; assay: Antimicrobial activity against Bacillus megaterium by disk diffusion method
[35] = system: Klebsiella pneumoniae; assay: Antimicrobial activity against Klebsiella pneumoniae at 20 ug/disk by disk diffusion method; conditions: read-out: DIZ
[36] = system: Aspergillus niger; assay: Antimicrobial activity against Aspergillus niger at 50 ug/disk by disk diffusion method; conditions: read-out: DIZ
[37] = system: Serratia marcescens; assay: Antimicrobial activity against Serratia marcescens at 10 ug/disk by disk diffusion method; conditions: read-out: DIZ
[38] = system: Pseudomonas aeruginosa; assay: Antimicrobial activity against Pseudomonas aeruginosa at 40 ug/disk by disk diffusion method; conditions: read-out: DIZ
[39] = system: Fusarium verticillioides; assay: Antimicrobial activity against Fusarium verticillioides at 40 ug/disk by disk diffusion method; conditions: read-out: DIZ
[40] = system: Proteus vulgaris; assay: Antimicrobial activity against Proteus vulgaris at 10 ug/disk by disk diffusion method; conditions: read-out: DIZ
[41] = system: Candida albicans; assay: Antimicrobial activity against Candida albicans at 10 ug/disk by disk diffusion method; conditions: read-out: DIZ
[42] = system: Fusarium verticillioides; assay: Antimicrobial activity against Fusarium verticillioides at 30 ug/disk by disk diffusion method; conditions: read-out: DIZ
[43] = system: Escherichia coli; assay: Antimicrobial activity against Escherichia coli at 30 ug/disk by disk diffusion method; conditions: read-out: DIZ
[44] = system: Aspergillus oryzae; assay: Antimicrobial activity against Aspergillus oryzae at 30 ug/disk by disk diffusion method; conditions: read-out: DIZ
[45] = system: Salmonella typhi; assay: Antimicrobial activity against Salmonella enterica subsp. enterica serovar Typhi at 50 ug/disk by disk diffusion method; conditions: read-out: DIZ

| Compound | diameter of the inhibition zone (DIZ) [1] | diameter of the inhibition zone (DIZ) [2] | diameter of the inhibition zone (DIZ) [3] | diameter of the inhibition zone (DIZ) [4] | diameter of the inhibition zone (DIZ) [5] | diameter of the inhibition zone (DIZ) [6] | diameter of the inhibition zone (DIZ) [7] | diameter of the inhibition zone (DIZ) [8] | diameter of the inhibition zone (DIZ) [9] | diameter of the inhibition zone (DIZ) [10] | diameter of the inhibition zone (DIZ) [11] | diameter of the inhibition zone (DIZ) [12] | diameter of the inhibition zone (DIZ) [13] | zone of inhibition at 10 µg/disc [14] | MIC [16] | MIC [17] | zone of inhibition at 20 µg/disc [22] | zone of inhibition at 10 µg/disc [23] | MIC [24] | MIC [26] | further results |
| --- | --- | --- | --- | --- | --- | --- | --- | --- | --- | --- | --- | --- | --- | --- | --- | --- | --- | --- | --- | --- | --- |
| OC(/C=C/c1ccco1)(c1ccccc1)C(O)(/C=C/c1ccco1)c1ccccc1 (stereo not given) | 9 mm | 5 mm | 9 mm | 7 mm | 5 mm | 5 mm | 6 mm | 9 mm | 7 mm | 5 mm | 5 mm | 5 mm | 5 mm |  |  |  |  |  |  |  |  |
| OC(/C=C/c1cccs1)(c1ccccc1)C(O)(/C=C/c1cccs1)c1ccccc1 (stereo not given) | 5 mm | 5 mm | 5 mm | 5 mm | 5 mm | 5 mm | 8 mm | 5 mm | 5 mm | 5 mm | 5 mm | 7 mm | 7 mm |  |  |  |  |  |  |  |  |
| OC(/C=C/c1ccc[nH]1)(c1ccccc1)C(O)(/C=C/c1ccc[nH]1)c1ccccc1 (stereo not given) | 5 mm | 5 mm | 5 mm | 5 mm | 5 mm | 5 mm | 5 mm | 5 mm | 5 mm | 9 mm | 5 mm | 5 mm | 5 mm |  |  |  |  |  |  |  |  |
| O=C(/C=C/c1ccccc1)c1cccs1 |  |  |  |  |  |  |  |  |  |  |  |  | 10 mm | 10 mm | 10 µg/mL (≈ 46.7 µM) | 10 µg/mL (≈ 46.7 µM) | 7 mm | 9 mm | 10 µg/mL (≈ 46.7 µM) | 10 µg/mL (≈ 46.7 µM) | zone of inhibition at 10 µg/disc [15]: 12 mm; zone of inhibition at 10 µg/disc [18]: 9 mm; zone of inhibition at 20 µg/disc [19]: 11 mm; zone of inhibition at 20 µg/disc [20]: 7 mm; zone of inhibition at 10 µg/disc [21]: 5 mm; zone of inhibition at 40 µg/disc [25]: 9 mm; MIC [27]: 10 µg/mL (≈ 46.7 µM); zone of inhibition at 10 µg/disc [28]: 5 mm; MIC [29]: 10 µg/mL (≈ 46.7 µM); MIC [30]: 10 µg/mL (≈ 46.7 µM); zone of inhibition at 10 µg/disc [31]: 9 mm; zone of inhibition at 20 µg/disc [32]: 9 mm; MIC [33]: 10 µg/mL (≈ 46.7 µM); MIC [34]: 10 µg/mL (≈ 46.7 µM) |
| O=C(/C=C/c1ccc[nH]1)c1ccccc1 |  |  |  |  |  |  |  |  |  |  |  |  |  | 12 mm | 10 µg/mL (≈ 50.7 µM) | 10 µg/mL (≈ 50.7 µM) | 9 mm | 7 mm | 10 µg/mL (≈ 50.7 µM) | 10 µg/mL (≈ 50.7 µM) | zone of inhibition at 10 µg/disc [15]: 5 mm; zone of inhibition at 20 µg/disc [35]: 9 mm; zone of inhibition at 50 µg/disc [36]: 8 mm; zone of inhibition at 10 µg/disc [21]: 6 mm; zone of inhibition at 10 µg/disc [37]: 7 mm; zone of inhibition at 40 µg/disc [38]: 9 mm; zone of inhibition at 40 µg/disc [25]: 7 mm; zone of inhibition at 40 µg/disc [39]: 6 mm; zone of inhibition at 10 µg/disc [40]: 5 mm; MIC [27]: 10 µg/mL (≈ 50.7 µM); MIC [29]: 10 µg/mL (≈ 50.7 µM); MIC [30]: 10 µg/mL (≈ 50.7 µM); zone of inhibition at 10 µg/disc [31]: 9 mm; MIC [33]: 10 µg/mL (≈ 50.7 µM); MIC [34]: 10 µg/mL (≈ 50.7 µM) |
| O=C(/C=C/c1ccccc1)c1ccc[nH]1 |  |  |  |  |  |  |  |  |  |  |  |  |  | 13 mm | 10 µg/mL (≈ 50.7 µM) | 10 µg/mL (≈ 50.7 µM) | 6 mm | 7 mm | 10 µg/mL (≈ 50.7 µM) | 10 µg/mL (≈ 50.7 µM) | zone of inhibition at 20 µg/disc [35]: 8 mm; zone of inhibition at 20 µg/disc [20]: 11 mm; zone of inhibition at 10 µg/disc [37]: 9 mm; zone of inhibition at 40 µg/disc [38]: 7 mm; zone of inhibition at 10 µg/disc [40]: 5 mm; zone of inhibition at 10 µg/disc [41]: 7 mm; MIC [27]: 10 µg/mL (≈ 50.7 µM); MIC [29]: 10 µg/mL (≈ 50.7 µM); zone of inhibition at 30 µg/disc [42]: 8 mm; MIC [30]: 10 µg/mL (≈ 50.7 µM); zone of inhibition at 30 µg/disc [43]: 7 mm; zone of inhibition at 30 µg/disc [44]: 9 mm; zone of inhibition at 50 µg/disc [45]: 7 mm; MIC [33]: 10 µg/mL (≈ 50.7 µM); MIC [34]: 10 µg/mL (≈ 50.7 µM) |

— ChEMBL document CHEMBL3046652, “Photodimerization of heteroaryl chalcones: comparative antimicrobial activities of chalcones and their photoproducts” (2012)
